Data reported in patent US11426412B2, “Imidazo-pyridine compounds as PAD inhibitors” (JUBILANT EPIPAD LLC, priority 2017, dated 2022).
Where a name gives a salt, the structure may show the parent alone.

How the values were obtained:
[1] = biological target: T1, PAD4 (Homo sapiens (Human), UniProt Q9UM07); experiment: Ammonia release biochemical assay (citrullination)
[2] = biological target: T1, PAD4; experiment: FP binding assay; conditions: for actively inhibiting PAD4 enzyme activity, FP Binding assay: summary of Table 1
[3] = Table 1, class A, read-out: IC50 value, ammonia release biochemical assay
[4] = read-out: NH3 release biochemical assay PAD4 IC50

T1 sequence (Q9UM07 whole entry): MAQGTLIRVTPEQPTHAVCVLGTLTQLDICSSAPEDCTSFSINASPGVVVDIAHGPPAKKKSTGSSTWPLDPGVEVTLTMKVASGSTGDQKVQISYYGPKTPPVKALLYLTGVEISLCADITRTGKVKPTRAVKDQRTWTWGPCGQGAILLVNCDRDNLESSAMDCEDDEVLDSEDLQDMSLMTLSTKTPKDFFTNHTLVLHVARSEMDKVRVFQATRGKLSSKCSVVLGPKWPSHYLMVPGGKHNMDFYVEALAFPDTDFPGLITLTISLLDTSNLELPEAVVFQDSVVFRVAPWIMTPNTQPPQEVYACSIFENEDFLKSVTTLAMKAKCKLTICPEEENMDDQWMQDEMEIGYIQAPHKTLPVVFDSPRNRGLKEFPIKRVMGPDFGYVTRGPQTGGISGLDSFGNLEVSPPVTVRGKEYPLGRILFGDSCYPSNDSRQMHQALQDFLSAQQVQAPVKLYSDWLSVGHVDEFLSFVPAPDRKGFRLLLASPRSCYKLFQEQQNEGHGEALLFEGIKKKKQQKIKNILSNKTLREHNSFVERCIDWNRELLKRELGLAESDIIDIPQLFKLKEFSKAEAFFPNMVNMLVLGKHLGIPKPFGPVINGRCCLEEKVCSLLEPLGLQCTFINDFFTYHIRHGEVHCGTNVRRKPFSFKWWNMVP

Compound	IC50 [1, 3] [nM]	IC50 [1, 4] [nM]	IC50 [2] [nM]	actively inhibiting PAD4 enzyme activity, FP Binding assay [2]
Cc1c(-c2cc3ccccc3n2Cc2ccc(F)cc2)nc2cc(C(=O)N3CCC[C@@H](N)C3)ccn12 [Compound 13, (R)-(3-Aminopiperidin-1-yl)(2-(1-(4-fluorobenzyl)-1H-indol-2-yl)-3-methylimidazo[1,2-a]pyridin-7-yl)methanone]	≤ 1000	< 1000	< 1000	actively inhibiting PAD4 enzyme activity
Cc1c(-c2cc3ccccc3n2Cc2ccccn2)nc2cc(C(=O)N3CCC[C@@H](N)C3)ccn12 [Compound 16, (R)-(3-Aminopiperidin-1-yl)(3-methyl-2-(1-(pyridin-2-ylmethyl)-1H-indol-2-yl)imidazo[1,2-a]pyridin-7-yl)methanone]	–	< 1000	< 1000	actively inhibiting PAD4 enzyme activity
COc1ccc2cc(-c3nc4cc(C(=O)N5CCC[C@@H](N)C5)ccn4c3C)n(CC3CC3)c2c1 [Compound 23, (R)-(3-Aminopiperidin-1-yl)(2-(1-(cyclopropylmethyl)-6-methoxy-1H-indol-2-yl)-3-methylimidazo[1,2-a]pyridin-7-yl)methanone]	–	< 1000	< 1000	actively inhibiting PAD4 enzyme activity
Cc1c(-c2cc3ccc(F)cc3n2CC2CC2)nc2cc(C(=O)N3CCC[C@@H](N)C3)ccn12 [Compound 28, (R)-(3-Aminopiperidin-1-yl)(2-(1-(cyclopropylmethyl)-6-fluoro-1H-indol-2-yl)-3-methylimidazo[1,2-a]pyridin-7-yl)methanone]	–	< 1000	< 1000	–
Cc1c(-c2cc3cc(F)ccc3n2CC2CC2)nc2cc(C(=O)N3CCC[C@@H](N)C3)ccn12 [Compound 29, (R)-(3-Aminopiperidin-1-yl)(2-(1-(cyclopropylmethyl)-5-fluoro-1H-indol-2-yl)-3-methylimidazo[1,2-a]pyridin-7-yl)methanone]	–	< 1000	< 1000	–
Cc1cccc2cc(-c3nc4cc(C(=O)N5CCC[C@@H](N)C5)ccn4c3C)n(CC3CC3)c12 [Compound 30, (R)-(3-Aminopiperidin-1-yl)(2-(1-(cyclopropylmethyl)-7-methyl-1H-indol-2-yl)-3-methylimidazo[1,2-a]pyridin-7-yl)methanone]	–	< 1000	< 1000	–
N[C@@H]1CCCN(C(=O)c2ccn3c(-c4ccccc4)c(-c4cc5ccccc5n4CC4CC4)nc3c2)C1 [Compound 32, (R)-(3-Aminopiperidin-1-yl)(2-(1-(cyclopropylmethyl)-1H-indol-2-yl)-3-phenylimidazo[1,2-a]pyridin-7-yl)methanone]	–	> 10000	> 10000	–
Cc1c(-c2cc3ccccc3n2Cc2ccsc2)nc2cc(C(=O)N3CCC[C@@H](N)C3)ccn12 [Compound 36, (R)-(3-aminopiperidin-1-yl)(3-methyl-2-(1-(thiophen-3-ylmethyl)-1H-indol-2-yl)imidazo[1,2-a]pyridin-7-yl)methanone]	–	< 1000	< 1000	actively inhibiting PAD4 enzyme activity

More lines, now with the values ahead:

IC50 [1, 3] [nM]	IC50 [1, 4] [nM]	IC50 [2] [nM]	actively inhibiting PAD4 enzyme activity, FP Binding assay [2]	Compound
≤ 1000	< 1000	< 1000	actively inhibiting PAD4 enzyme activity	CCn1c(-c2nc3cc(C(=O)N4CCC[C@@H](N)C4)ccn3c2C)cc2cc(F)ccc21 [Compound 39, (R)-(3-aminopiperidin-1-yl)(2-(1-ethyl-5-fluoro-1H-indol-2-yl)-3-methylimidazo[1,2-a]pyridin-7-yl)methanone]
–	< 1000	–	–	Cc1c(-c2cc3ccc(F)cc3n2CC(C)C)nc2cc(C(=O)N3CCC[C@@H](N)C3)ccn12 [Compound 73, (R)-(3-aminopiperidin-1-yl)(2-(6-fluoro-1-isobutyl-1H-indol-2-yl)-3-methylimidazo[1,2-a]pyridin-7-yl)methanone]
–	< 1000	–	–	Cc1c(-c2cc3cc(F)ccc3n2Cc2ccncc2)nc2cc(C(=O)N3CCC[C@@H](N)C3)ccn12 [Compound 74, (R)-(3-aminopiperidin-1-yl)(2-(5-fluoro-1-(pyridin-4-ylmethyl)-1H-indol-2-yl)-3-methylimidazo[1,2-a]pyridin-7-yl)methanone]
–	< 1000	–	–	COc1ccc(Cn2c(-c3nc4cc(C(=O)N5CCC[C@@H](N)C5)ccn4c3C)cc3cc(F)ccc32)cc1 [Compound 75, (R)-(3-aminopiperidin-1-yl)(2-(5-fluoro-1-(4-methoxybenzyl)-1H-indol-2-yl)-3-methylimidazo[1,2-a]pyridin-7-yl)methanone]
–	< 1000	–	–	Cc1c(-c2cc3cc(F)ccc3n2Cc2ccc(F)cc2)nc2cc(C(=O)N3CCC[C@@H](N)C3)ccn12 [Compound 76, (R)-(3-aminopiperidin-1-yl)(2-(5-fluoro-1-(4-fluorobenzyl)-1H-indol-2-yl)-3-methylimidazo[1,2-a]pyridin-7-yl)methanone]
–	< 1000	–	–	Cc1c(-c2cc3cccc(Cl)c3n2Cc2ccc(F)cc2)nc2cc(C(=O)N3CCC[C@@H](N)C3)ccn12 [Compound 77, (R)-(3-aminopiperidin-1-yl)(2-(7-chloro-1-(4-fluorobenzyl)-1H-indol-2-yl)-3-methylimidazo[1,2-a]pyridin-7-yl)methanone]
–	< 1000	–	–	Cc1c(-c2cc3ccccc3n2CC(F)F)nc2cc(C(=O)N3CCC[C@@H](N)C3)ccn12 [Compound 78, (R)-(3-aminopiperidin-1-yl)(2-(1-(2,2-difluoroethyl)-1H-indol-2-yl)-3-methylimidazo[1,2-a]pyridin-7-yl)methanone Trifluoroacetic Acid Salt]
–	< 1000	–	–	Cc1c(-c2cc3ccccc3n2Cc2ccc(F)cn2)nc2cc(C(=O)N3CCC[C@@H](N)C3)ccn12 [Compound 79, (R)-(3-aminopiperidin-1-yl)(2-(1-((5-fluoropyridin-2-yl)methyl)-1H-indol-2-yl)-3-methylimidazo[1,2-a]pyridin-7-yl)methanone]
–	< 1000	–	–	COc1ccc2cc(-c3nc4cc(C(=O)N5CCC[C@@H](N)C5)ccn4c3C)n(Cc3ccc(F)cc3)c2c1 [Compound 80, (R)-(3-aminopiperidin-1-yl)(2-(1-(4-fluorobenzyl)-6-methoxy-1H-indol-2-yl)-3-methylimidazo[1,2-a]pyridin-7-yl)methanone]
≤ 1000	< 1000	–	–	COc1ccc2cc(-c3nc4cc(C(=O)N5CCC[C@@H](N)C5)ccn4c3C)n(CC(C)C)c2c1 [Compound 82, (R)-(3-aminopiperidin-1-yl)(2-(1-isobutyl-6-methoxy-1H-indol-2-yl)-3-methylimidazo[1,2-a]pyridin-7-yl)methanone]
≤ 1000	< 1000	–	–	COc1ccc2cc(-c3nc4cc(C(=O)N5CCC[C@@H](N)C5)ccn4c3C)n(CC(F)F)c2c1 [Compound 83, (R)-(3-aminopiperidin-1-yl)(2-(1-(2,2-difluoroethyl)-6-methoxy-1H-indol-2-yl)-3-methylimidazo[1,2-a]pyridin-7-yl)methanone]
≤ 1000	< 1000	–	–	COc1cc(Cn2c(-c3nc4cc(C(=O)N5CCC[C@@H](N)C5)ccn4c3C)cc3ccccc32)ccc1F [Compound 85, (R)-(3-aminopiperidin-1-yl)(2-(1-(4-fluoro-3-methoxybenzyl)-1H-indol-2-yl)-3-methylimidazo[1,2-a]pyridin-7-yl)methanone]
